Data published in the supplement of paper PMC10307832.

Compound: CC1(C)CNc2cc(NC(=O)c3cccnc3NCc3ccncc3)ccc21 [Motesanib] + Cc1nc(Nc2ncc(C(=O)Nc3c(C)cccc3Cl)s2)cc(N2CCN(CCO)CC2)n1 [Dasatinib] (partner 0.075 µM)
Test: relative viability (nuclei count vs DMSO), 5 days (fraction); higher = more cells survive
Conditions: first compound 0.01 µM
How it was run: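 One day after seeding in 1536-well plates, lung cancer cell lines were dosed by pin tool. Dosing was either single-drug or a fixed anchor-drug dose plus five library-drug doses (not always all listed) in √10 steps. After 5 days, nuclei were stained in one fix-and-stain step and counted on 4× images, and relative viability is the nuclei count of treated wells over that of vehicle wells, given as the median of duplicate plates.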

Cell Line	relative viability
EMC-BAC-2	0.292
NCI-H2085	0.286
HCC-366	0.666
NCI-H1666	0.783
NCI-H596	0.651
LK-2	0.322
NCI-H2087	0.838
SK-MES-1	0.397
H3255	0.304
COR-L23	0.561
COR-L 105	0.407
LOU-NH91	0.515
ChaGo-K-1	0.55
NCI-H2170	0.533
HOP-62	0.658
NCI-H522	0.754
LU99A	0.636
BEN	0.286
HARA	0.225
SW 900	0.545
HCC-78	0.342
NCI-H322M	0.234
NCI-H1563	0.424

Same assay, conditions: first compound 0.03162 µM

Cell Line	relative viability
NCI-H2342	0.312
NCI-H1623	0.567
NCI-H727	0.241
NCI-H1650	0.337
NCI-H1993	0.509
SW 1573	0.447
NCI-H838	0.274
LCLC-103H	0.444
NCI-H520	0.196
NCI-H2126	0.541
EMC-BAC-2	0.34
NCI-H2085	0.204
HCC-366	0.553
NCI-H1666	0.747
NCI-H596	0.543
LK-2	0.212
NCI-H2087	0.841
SK-MES-1	0.424

Cell Line	relative viability
H3255	0.38
COR-L23	0.59
COR-L 105	0.243
LOU-NH91	0.536
ChaGo-K-1	0.535
NCI-H2170	0.507
NCI-H2405	0.196
HOP-62	0.6
NCI-H522	0.835
LU99A	0.453
BEN	0.342
HARA	0.2
SW 900	0.714
HCC-78	0.406
NCI-H322M	0.216
NCI-H1792	0.749
NCI-H1563	0.44

Same assay, conditions: first compound 0.1 µM

Cell Line	relative viability
NCI-H2342	0.336
NCI-H1623	0.562
NCI-H727	0.404
NCI-H1650	0.33
NCI-H1993	0.639
SW 1573	0.593
NCI-H838	0.333
LCLC-103H	0.44
NCI-H520	0.21
NCI-H2126	0.597
EMC-BAC-2	0.342
NCI-H2085	0.225
HCC-366	0.552
NCI-H1666	0.89
NCI-H596	0.534
NCI-H2087	0.774
SK-MES-1	0.373

Cell Line	relative viability
H3255	0.473
COR-L23	0.515
COR-L 105	0.308
LOU-NH91	0.621
ChaGo-K-1	0.544
NCI-H2170	0.463
NCI-H2405	0.232
HOP-62	0.715
NCI-H522	0.921
LU99A	0.681
BEN	0.333
HARA	0.215
SW 900	0.858
HCC-78	0.291
NCI-H322M	0.268
NCI-H1792	0.808
NCI-H1563	0.447

Same assay, conditions: first compound 0.3162 µM

Cell Line	relative viability
NCI-H2342	0.279
NCI-H1623	0.556
NCI-H727	0.448
NCI-H1650	0.329
NCI-H1993	0.63
SW 1573	0.552
NCI-H838	0.307
LCLC-103H	0.504
NCI-H520	0.226
NCI-H2126	0.545
EMC-BAC-2	0.339
NCI-H2085	0.252
HCC-366	0.631
NCI-H1666	0.797
NCI-H596	0.563
LK-2	0.379
NCI-H2087	0.91
SK-MES-1	0.412

Cell Line	relative viability
H3255	0.302
COR-L23	0.499
COR-L 105	0.401
LOU-NH91	0.594
ChaGo-K-1	0.696
NCI-H2170	0.511
NCI-H2405	0.283
HOP-62	0.692
NCI-H522	0.862
LU99A	0.606
BEN	0.325
HARA	0.303
SW 900	0.611
HCC-78	0.391
NCI-H322M	0.26
NCI-H1792	0.953
NCI-H1563	0.473

Same assay, conditions: first compound 1 µM

Cell Line	relative viability
NCI-H2342	0.317
NCI-H1623	0.538
NCI-H727	0.34
NCI-H1650	0.298
NCI-H1993	0.588
SW 1573	0.673
NCI-H838	0.391
LCLC-103H	0.52
NCI-H520	0.218
NCI-H2126	0.635
EMC-BAC-2	0.303
NCI-H2085	0.23
HCC-366	0.808
NCI-H1666	0.802
NCI-H596	0.53
LK-2	0.245
NCI-H2087	0.895
SK-MES-1	0.378

Cell Line	relative viability
H3255	0.338
COR-L23	0.451
COR-L 105	0.394
LOU-NH91	0.586
ChaGo-K-1	0.691
NCI-H2170	0.57
NCI-H2405	0.208
HOP-62	0.757
NCI-H522	0.864
LU99A	0.524
BEN	0.343
HARA	0.3
SW 900	0.461
HCC-78	0.437
NCI-H322M	0.262
NCI-H1792	0.767
NCI-H1563	0.421
